Results taken from patent US20250099532A1, “METHODS OF TREATMENT USING OXYTOCIN” (Belnap Pharmaceuticals, LLC, priority 2022, published 2025).

How the values were obtained:
[1] = system: patients; test: Clinical observations in treated patients; type: in vivo, human
Description: It is imperative that patients get as quickly to the positive zone as possible. […] Anxiety is a major contributor to chronic inflammation, which decreases BDNF and the continued loss of synaptic connections.

[2] = system: depression; conditions: after a single administration; cited from earlier work

| Compound | time the patient continued to stay sober ([1]; Patient 3 (alcoholic), patient attributes it to the addition of oxytocin) | response of the patient's anxiety with oxytocin compared with ketamine treatment alone ([1]; Patient 10 (PTSD, Depression, and Anxiety)) | recovery from anxiety compared with ketamine infusions alone ([1]; patients, addition of oxytocin treatment) | ketamine experience when oxytocin is administered prior to the ketamine treatment ([1]; patients, oxytocin before ketamine) | recovery from depression and anxiety compared with ketamine alone ([1]; patients, oxytocin prior to ketamine treatment) | begin of antidepressant effects post-infusion [2] | loss of superiority to placebo post-infusion [2] | peak of antidepressant effects [2] | duration of positive effects of a series of infusions ([1]; IV ketamine alone, series of infusions (e.g., six)) | relief of anxiety compared with depression ([1]; patients, ketamine treatments alone) |
| --- | --- | --- | --- | --- | --- | --- | --- | --- | --- | --- |
| CC[C@H](C)[C@@H]1NC(=O)[C@H](Cc2ccc(O)cc2)NC(=O)[C@@H](N)CSSC[C@@H](C(=O)N2CCC[C@H]2C(=O)N[C@@H](CC(C)C)C(=O)NCC(N)=O)NC(=O)[C@H](CC(N)=O)NC(=O)[C@H](CCC(N)=O)NC1=O [oxytocin] | 18 months | much quicker | much quicker recovery | much more calm and euphoric ketamine experience | recovering much more quickly |  |  |  |  |  |
| CNC1(c2ccccc2Cl)CCCCC1=O (racemic) [ketamine, Ketamine (racemic)] |  |  |  |  |  | 40 min | 10 to 12 days | approximately 24 h | one month to several (e.g., 4-6) months | a lot slower |
